From article PMC10897926 (Journal of Natural Products, 2024)
Where two headings read alike, the source gives them in different places.

How the values were obtained:
[1] = test system: P. falciparum (strain W2) asexual blood stage parasites; experiment: microbe, parasite or virus in culture; type: cell-based, Plasmodium falciparum
P. vivax liver schizonts = experiment: microbe, parasite or virus in culture; type: cell-based, Plasmodium vivax
P. vivax hypnozoites = experiment: microbe, parasite or virus in culture; type: cell-based, Plasmodium vivax
[2] = test system: primary human hepatocytes
in vitro [3] = settings: human
in vitro [4] = settings: human; remark: listed apart in the source
[5] = Plasmodium vivax, Hepatocyte, 288 h, read-out: P. vivax schizont EC50
[6] = Plasmodium vivax, read-out: P. vivax schizont pEC50 (converted)
[7] = Plasmodium vivax, Hepatocyte, 288 h, read-out: P. vivax hypnozoite EC50
[8] = Plasmodium vivax, read-out: P. vivax hypnozoite pEC50 (converted)

CC(=O)OC[C@]12CCC(C)=C[C@H]1O[C@@H]1[C@H](O)[C@@H](OC(C)=O)[C@@]2(C)[C@]12CO2 [anguidine, diacetoxyscirpenol]
EC50 ([1]; read-out: P. falciparum ABS (W2) EC50): 6.16 nM
EC50 (P. vivax liver schizonts; read-out: P. vivax schizont EC50): 13.5 nM
P. vivax hypnozoite pEC50 (P. vivax hypnozoites): 36.3 (7.44 ± 0.75)
EC50 (P. vivax hypnozoites; read-out: P. vivax hypnozoite EC50): 36.3 nM
PHH Tox pCC50 [2]: 380 (6.42 ± 0.31)
CC50 ([2]; read-out: PHH Tox CC50): 380 nM
HepG2 Tox pCC50 (HepG2 cells): 27.5 (7.56 ± 0.08)
cytotoxicity (in words) (HepG2 cells): cytotoxic
CC50 (HepG2 cells; read-out: HepG2 Tox CC50): 27.5 nM

COc1ccc(C[C@H](N)C(=O)N[C@H]2[C@@H](O)[C@H](n3cnc4c(N(C)C)ncnc43)O[C@@H]2CO)cc1 [puromycin]
EC50 (P. vivax liver schizonts; [5]): 2290 nM
EC50 (P. vivax liver schizonts; [6]): 2290 nM
EC50 (P. vivax hypnozoites; [7]): 776 nM
EC50 (P. vivax hypnozoites; [8]): 776 nM
CC50 (in vitro [3]; PHH Tox CC50): 1740 nM
CC50 (in vitro [3]; PHH Tox pCC50): 1740 nM
CC50 (in vitro [4]; HepG2 Tox CC50): 398 nM
CC50 (in vitro [4]; HepG2 Tox pCC50): 398 nM

C[C@H]1[C@@H](O)O[C@@H]2O[C@@]3(C)CC[C@H]4[C@H](C)CC[C@@H]1[C@@]24OO3 [dihydroartemisinin]
EC50 ([1]; Plasmodium falciparum, W2, 72 h, read-out: P. falciparum ABS (W2) EC50): 1.44 nM
EC50 ([1]; Plasmodium falciparum, W2, 72 h, read-out: P. falciparum ABS (W2) pEC50 (converted)): 1.45 nM

CO[C@@H]1C[C@@H](C[C@H]2CC[C@H](C)[C@H]([C@@H](C)C(=O)O)O2)O[C@]2(O[C@](C)([C@H]3CC[C@@](C)([C@@H]4O[C@@H]([C@H]5O[C@@](O)(CO)[C@H](C)C[C@@H]5C)C[C@@H]4C)O3)C[C@H]2C)[C@@H]1C [nigericin]
EC50 (P. vivax liver schizonts; [5]): 5.13 nM
EC50 (P. vivax liver schizonts; [6]): 5.13 nM
EC50 (P. vivax hypnozoites; [7]): 12.3 nM
EC50 (P. vivax hypnozoites; [8]): 12.3 nM
PHH Tox pCC50 ([2]; human): >200 (6.70 ± 0.00)
CC50 (in vitro [3]; PHH Tox CC50): > 200 nM
